Source: patent publication US20250351832A1, “PHYTOCHEMICALS AS BIOPESTICIDES AND BIOSTIMULANTS” (KAY BEE BIO ORGANICS PVT. LTD., priority 2024, published 2025)

Assays:
Tomato thrips = assay: In vitro bio-efficacy, Tomato thrips (Ex. 57); settings: Dose 0.17 ml/lit
[1] = tested on: Potato Bacterial Blight (BLB) (Ralstonia solanacearum); assay type: in vivo; settings: dose 500 PPM
[2] = tested on: Rice Bacterial Blight (BLB) (Xanthomonas oryzae pv. Oryzae); assay type: in vivo; settings: dose 500 PPM
[3] = tested on: Cotton Bacterial Leaf Blight (Xanthomonas citri pv. Malvacearum); assay: Field trial, cotton bacterial leaf blight (Ex. 96); settings: dose 500 PPM

CN(C(=O)c1ccccc1)c1cccc(C(=O)Nc2c(Br)cc(C(F)(C(F)(F)F)C(F)(F)F)cc2C(F)(F)F)c1F [Brofranilide]
% Corrected Mortality at 72 hrs. (Tomato thrips): 47.37% | % Mortality at 72 hrs. (Tomato thrips): 50.0% | Total no of dead insects at 72 hrs. (Tomato thrips): 20.0

O=[N+]([O-])C(Br)(CO)CO [Bromopol]
% Disease Infection after 1st spray [1]: 24.49% | % Disease Infection after 2nd spray [1]: 21.79% | % Disease Reduction Over Control after 1st spray [1]: 53.59% | % Disease Reduction Over Control after 2nd spray [1]: 71.13% | % Increase in yield over control ([1]; potato): 7.64% | Yield ([1]; potato): 22.24 t/ha | % Disease Infection after 1st spray [2]: 22.18% | % Disease Infection after 2nd spray [2]: 19.63% | % Disease Reduction Over Control after 1st spray [2]: 61.71% | % Disease Reduction Over Control after 2nd spray [2]: 74.02% | % Increase in yield over control ([2]; rice): 8.31% | Yield ([2]; rice): 4.09 t/ha | % Increase in yield over control ([3]; cotton): 7.93% | Yield ([3]; cotton): 24.96 qtl/ha | % Disease Infection after 1st spray [3]: 30.65% | % Disease Infection after 2nd spray [3]: 12.86% | % Disease Reduction Over Control after 1st spray [3]: 47.43% | % Disease Reduction Over Control after 2nd spray [3]: 81.68%
